From patent US8691796B2, “Pharmaceutical composition and method for inhibiting inflammation” (China Medical University, priority 2010, dated 2014)

How the values were obtained:
Format in all cases: cell-based, human
[1] = tested on: IL-8; assay: IL-8 concentration in supernatant of treated FLS (sandwich ELISA); conditions: FLS from patients with rheumatoid arthritis, treated 24 hours, mixture = 100 μg hyaluronic acid + 5 micro-mole lovastatin in 1 ml, control group 736.00
Procedure: The non-adherent cells were washed out with a phosphate buffer solution (PBS), the medium was refreshed, and the retained adherent cells were cultivated for two weeks. The above procedure was repeated three to six times, and the retained cells were FLS, which were used in the following experiments.
The FLS prepared from Experiment A were incubated in a medium containing no serum for 24 hours until the cells grew to a subconfluence state, and the cells were incubated in a DMEM medium containing 10% fetal bovine serum. […]

[2] = tested on: TNF-α; assay: TNF-α concentration in supernatant of treated FLS (sandwich ELISA); conditions: FLS from patients with rheumatoid arthritis, treated 24 hours, mixture = 100 μg hyaluronic acid + 5 micro-mole lovastatin in 1 ml, control group 347.00
Procedure: (§1) Fibroblast-like synoviocytes (FLS) from seven patients with rheumatoid arthritis (RA) were collected and incubated. First, the joint synovia from the patients were cut into small pieces and suspended in a DMEM medium (Dulbecco modified eagle's medium, comprising 1.5 g/L sodium bicarbonate (S6297, Sigma-Aldrich Co. St Louis, Mo., USA), 1% penicillin-streptomycin-neomycin (P4083, Sigma-Aldrich Co.), and 10% fetal bovine serum (04-001-1A, Biological Industries, Grand Island, N.Y., USA)), and were incubated in the environment under 37° C., 5% CO2 for three days.
(§2) The non-adherent cells were washed out with a phosphate buffer solution (PBS), the medium was refreshed, and the retained adherent cells were cultivated for two weeks. […]
(§3) The concentrations of two RA-related factors, TNF-α (the standard sample was purchased from eBioscience, Ltd., 88-7340) and IL-8 (the standard sample was purchased from R&D systems, Inc., USA, DY208), in the supernatants collected from Experiment B were measured using a sandwich binding protein assay kit or sandwich ELISA kits (purchased from eBioscience, Ltd. and R&D systems, Inc.) according to the manufacturer's manual and standard curves to observe the expression level of the factors, thereby determining the inflammation condition of the cells. Each sample was analyzed twice, and an ELISA reader (Sunrise Remote, TECAN) was used to conduct the measurement. […]

[3] = tested on: Fibroblast-like synoviocytes (FLS); assay: Inflammation level of FLS judged from secreted TNF-α and IL-8; conditions: FLS from patients with RA, treated 24 hours; TNF-α and IL-8 versus control group / HA only
Procedure: as §1, §2, §3

Compound | IL-8 concentration, Average concentration [1] | TNF-α concentration, Average concentration [2] | inflammation level (effect of inhibiting the inflammation) [3]
CC[C@H](C)C(=O)O[C@H]1C[C@@H](C)C=C2C=C[C@H](C)[C@H](CC[C@@H]3C[C@@H](O)CC(=O)O3)[C@H]21 [HMG-CoA reductase inhibitor, Lovastatin] | 703.94 pg/mL | 355.07 pg/mL | 
hyaluronic acid [HA] | 353.40 pg/mL | 296.46 pg/mL | the inflammation level was lowered
